The text below walks through data of patent US9527836B2, “Crystal having specific crystal habit and pharmaceutical composition containing the crystal as active ingredient” (POLA PHARMA INC., priority 2013, dated 2016).

The subject of data set [1] is Trichomonas vaginalis (clinically isolated strain). The data set can be described thus: Direct effect on Trichomonas vaginalis culture, number of individuals counted on a hemocytometer. In kind it is cell-based. To be noted: 5.08 mg solid crystal added to Trichomonas medium F; culture of 3.93×10^5 individuals/mL; cultured at 37° C. for 4 days. The protocol: The direct effect of luliconazole was investigated by using Trichomonas vaginalis (clinically isolated strain). That is, there were prepared a sample in which 5.08 mg of luliconazole of Comparative Example 1 recrystallized from n-hexane and ethyl acetate was added to “Trichomonas medium F” (produced by Fuji Pharma Co., Ltd.), a sample in which 5.08 mg of the crystal of Example 2 was added, and a sample (control) in which 5 μL of water was added. […] of a culture of Trichomonas vaginalis of 3.93×10^5 individuals/mL was added thereto, followed by being cultured at 37° C. for 4 days, and the number of individuals of Trichomonas was counted on a hemocytometer. A significant difference was confirmed at a significance level of not more than 1% among the three samples. Accordingly, it is appreciated that the crystal of the present invention is excellent in the solid-state reactivity.

Data set [2] can be described thus: Tablet hardness measurement with hardness meter PTB311. The format is physicochemical. The note with it: tablet of 50% by mass lactose and 50% by mass luliconazole, tablet making pressure 1 ton/cm^2, 9 mmφ, average of six samples. As to the method: A tablet was manufactured in accordance with a formulation shown in Table 5 below, and the hardness was measured. PTB311 (produced by Pharma Test GmbH) was used as a hardness meter. As for the tablet making condition, the tablet making was performed at a tablet making pressure of 1 ton/cm^2 by using a pestle and a mortar of 9 mmφ. In Comparative Example, the operation was performed in the same manner as described above by using the crystal (Comparative Example 1) obtained by performing the recrystallization with n-hexane-ethyl acetate.

Data set [3] is described as follows: Dissolution state in ethanol, visually confirmed. In kind it is physicochemical. To be noted: 20 mg crystal in 2 ml ethanol, stationarily placed at 30° C. for 2 hours. As to the method: 20 mg of each of the crystals was weighed, to which 2 ml of ethanol was added, followed by being stored by stationarily placed at 30° C. for 2 hours. The dissolution state was visually confirmed. Accordingly, it is appreciated that the crystal of the present invention is easily dissolved in the polar solvent.

[4] abbreviates: listed as crystal of Comp. Ex. 1.

As for `N#C/C(=C1/SC[C@@H](c2ccc(Cl)cc2Cl)S1)n1ccnc1` [Comp. Ex. 1, luliconazole, reference compound], the “number of individuals of Trichomonas (Average)” value in data set [1] turned out to be 376000. Further, the Hardness in data set [2] (setting [4]) is on record as 29.1 ± 3.0 N. For the same compound, in data set [3] (setting [4]), the Dissolution state result is “crystal was found at bottom”.

On to `N#C/C(=C1/SC[C@@H](c2ccc(Cl)cc2Cl)S1)n1ccnc1` [Example 1, luliconazole], for which, in data set [3] (listed as crystal of Example 1), the Dissolution state result is listed as “no crystal was found”.

As to `N#C/C(=C1/SC[C@@H](c2ccc(Cl)cc2Cl)S1)n1ccnc1` [Example 2, luliconazole], the “number of individuals of Trichomonas (Average)” value in data set [1] is given as 256000. Also, the Hardness in data set [2] (listed as crystal of Example 2) is given as 73.7 ± 4.2 N. Further, the Dissolution state result in data set [3] (listed as crystal of Example 2) is listed as “no crystal was found”.
